This is an account of results in patent US6555580B2, “Amino- and amido-diphenyl ethers” (Bayer Aktiengesellschaft, priority 2000, dated 2003).

A short description of this test: T3 promoter assay cell test (luciferase reporter under thyroid hormone-regulated promoter). Type of test: cell-based. The conditions noted are these: Homo sapiens; HepG2 luciferase reporter with thyroid hormone-responsive element; costimulator retinoic acid; incubation 48 or 72 hours; four replicates. The protocol: The activity of the compounds according to the invention can be tested for example in vitro by the known T3 promoter assay cell test which is described below.
T3 Promoter Assay Cell Test
The test is carried out with a stably transfected human HepG2 hepatocarcinoma cell which expresses a luciferase gene under the control of a thyroid hormone-regulated promoter. The vector used for the transfection has upstream of the luciferase gene a minimal thymidine kinase promoter with a thyroid hormone-responsive element (TRE) which consists of two inverted palindromes each of 12 bp and of an 8 bp spacer.
For the test, the cell cultures are seeded in Eagle's minimal essential medium in 96-well plates with the following additions: glutamine, tricine, sodium pyruvate, nonessential amino acids, insulin, selenium and transferrin. The cultures are grown at 37° C. with a 10% CO2 atmosphere for 48 hours. In serial dilutions of test substance or reference compound (triiodothyronine=T3, thyroxine=T4) and costimulator retinoic acid are added to the test cultures and the latter are incubated as previously for a further 48 or 72 hours. Each substance concentration is tested in four replicates. To determine the luciferase induced by T3 or other substances, the cells are subsequently lysed by adding a Triton- and luciferin-containing buffer and measured immediately in a luminometer. The EC50 values for each compound are calculated (see Table 1).
(In a reporter assay the amount or activity of a reporter protein is the signal.)
Turning to `CCOC(=O)C(=O)Nc1cc(C)c(Oc2ccc(O)c(NC(=O)CCc3ccccc3)c2)c(C)c1` [Example 8, Ethyl (4-{4-hydroxy-3-[(3-phenylpropanoyl)amino]phenoxy}-3,5-dimethylanilino)(oxo)acetate], the EC50 (usually the concentration at which the effect is half-maximal) came to 20 nM.
`CCOC(=O)C(=O)Nc1cc(C)c(Oc2ccc(O)c(C(=O)N(C)C3CCCCC3)c2)c(C)c1` [Example 16, Ethyl [4-(3-{[cyclohexyl(methyl)amino]carbonyl}-4-hydroxyphenoxy)-3,5-dimethylanilino](oxo)acetate]: the EC50 worked out at 28 nM.
Compound `CCCN(Cc1ccccc1)Cc1cc(Oc2c(C)cc(NC(=O)C(=O)OCC)cc2C)ccc1O` [Example 29] returned an EC50 of 2.4 nM.
Compound `CCOC(=O)C(=O)Nc1cc(C)c(Oc2ccc(O)c(CN(Cc3ccccc3)Cc3ccccc3)c2)c(C)c1` [Example 54] registered an EC50 of 6.7 nM.
The compound `CCCCCCCC(=O)N(Cc1cc(Oc2c(C)cc(NC(=O)C(=O)OCC)cc2C)ccc1O)c1ccc(F)cc1` [Example 122] came in with an EC50 of 55 nM.
The value for `CCOC(=O)C(=O)Nc1cc(C)c(Oc2ccc(O)c(NC(=O)C(C)Oc3ccc(Cl)cc3C)c2)c(C)c1` (centres unmarked) [Example 190] was 14 nM.
With `Cc1cc(N)cc(C)c1Oc1ccc(O)c(NC(=O)NC(C)c2ccccc2)c1` (centres unmarked) [Example 204], the 50% effective concentration (EC50) stood at 61 nM.
For `CCOC(=O)C(=O)Nc1cc(C)c(Oc2ccc(O)c(C(=O)NC(CC)c3ccccc3)c2)c(C)c1` (centres unmarked) [Example 260], it took 12 nM to reach a half-maximal effect (EC50).
